Measurements taken from patent US20240115654A1, “INTRAVENOUS ADMINISTRATION OF ENGINEERED ANTIMICROBIAL AMPHIPHILIC PEPTIDES” (priority 2021, published 2024).
Where two headings read alike, the source gives them in different places. Peptide text beside a SMILES is read from it.

Settings: human, in vivo
[1] = single 1-hour infusion 0.05 mg/kg, Geometric Mean
[2] = single 1-hour infusion 0.05 mg/kg, Mean
[3] = single 1-hour infusion 0.05 mg/kg, Median
[4] = single 1-hour infusion 0.05 mg/kg, individual subjects
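Also: phase 1 study in human subjects given one IV dose of the peptide, enrolled in sequential ascending-dose cohorts and randomized to peptide or placebo.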

## CC(C)[C@H](NC(=O)[C@H](Cc1c[nH]c2ccccc12)NC(=O)[C@H](CCCNC(=N)N)NC(=O)[C@H](CCCNC(=N)N)NC(=O)[C@@H](NC(=O)[C@@H](NC(=O)[C@H](CCCNC(=N)N)NC(=O)[C@@H](NC(=O)[C@@H](NC(=O)[C@H](CCCNC(=N)N)NC(=O)[C@H](CCCNC(=N)N)NC(=O)[C@H](Cc1c[nH]c2ccccc12)NC(=O)[C@@H](NC(=O)[C@H](CCCNC(=N)N)NC(=O)[C@H](CCCNC(=N)N)NC(=O)[C@@H](NC(=O)[C@H](CCCNC(=N)N)NC(=O)[C@H](CCCNC(=N)N)NC(=O)[C@@H](NC(=O)[C@H](Cc1c[nH]c2ccccc12)NC(=O)[C@H](CCCNC(=N)N)NC(=O)[C@@H](N)CCCNC(=N)N)C(C)C)C(C)C)C(C)C)C(C)C)C(C)C)C(C)C)C(C)C)C(=O)N[C@@H](CCCNC(=N)N)C(=O)N[C@@H](CCCNC(=N)N)C(N)=O [SEQ ID NO: 1] (H-RRWVRRVRRVWRRVVRVVRRWVRR-NH2)
  clearance: 40.3 to 69.7 mL/min
0.05 mg/kg, AUC0-inf, 0.05 mg/kg 1-hr infusion
  AUC(0-inf): 1580 ng·h/mL
0.05 mg/kg, AUC0-t, 0.05 mg/kg 1-hr infusion
  AUC(0-t): 1280 ng·h/mL
0.05 mg/kg, AUC0-∞
  AUC(0-inf): 1580 ng·h/mL
0.05 mg/kg, 0.05 mg/kg 1-hr infusion
  Cmax: 256 ng/mL
0.05 mg/kg, mean AUC0-t
  AUC(0-t): 1280 ng·h/mL
0.05 mg/kg, t1/2, 0.05 mg/kg 1-hr infusion
  half-life: 7.4 h
0.5 mg/kg, AUC0-inf, 0.5 mg/kg 2-hr infusion
  AUC(0-inf): 9090 ng·h/mL
0.5 mg/kg, AUC0-t, 0.5 mg/kg 2-hr infusion
  AUC(0-t): 8330 ng·h/mL
0.5 mg/kg, 0.5 mg/kg 2-hr infusion
  Cmax: 1830 ng/mL
0.5 mg/kg, t1/2, 0.5 mg/kg 2-hr infusion
  half-life: 16.2 h
1 mg/kg, AUC0-∞
  AUC(0-inf): 21100 ng·h/mL
1 mg/kg, mean AUC0-t
  AUC(0-t): 21600 ng·h/mL
AUC0-24, single 1-hour infusion 0.05 mg/kg, Geometric Mean
  AUC(0-t): 1230 ng·h/mL
AUC0-24, single 1-hour infusion 0.05 mg/kg, Mean
  AUC(0-t): 1290 ng·h/mL
AUC0-24, single 1-hour infusion 0.05 mg/kg, Median
  AUC(0-t): 1350 ng·h/mL
AUC0-inf, single 1-hour infusion 0.05 mg/kg, Geometric Mean
  AUC(0-inf): 1600 ng·h/mL
AUC0-inf, single 1-hour infusion 0.05 mg/kg, Mean
  AUC(0-inf): 1610 ng·h/mL
AUC0-inf, single 1-hour infusion 0.05 mg/kg, Median
  AUC(0-inf): 1520 ng·h/mL
AUC0-inf, single 1-hour infusion 0.05 mg/kg, individual subjects
  AUC(0-inf): 1400 ng·h/mL
AUC0-t, single 1-hour infusion 0.05 mg/kg, Geometric Mean
  AUC(0-t): 1220 ng·h/mL
AUC0-t, single 1-hour infusion 0.05 mg/kg, Mean
  AUC(0-t): 1310 ng·h/mL
AUC0-t, single 1-hour infusion 0.05 mg/kg, Median
  AUC(0-t): 1350 ng·h/mL
[1]
  CL/F: 0.522 mL/min/kg
  Cmax: 251 ng/mL
  Tmax: 1 h
[2]
  CL/F: 0.525 mL/min/kg
  Cmax: 256 ng/mL
  Tmax: 1 h
[3]
  CL/F: 0.548 mL/min/kg
  Cmax: 262 ng/mL
  Tmax: 1 h
[4]
  CL/F: 0.595 mL/min/kg
  Tmax: 1 h
Single 1-hour infusion […], individual subjects
  Tmax: 1 h
[…], t1/2, […] 1-hr infusion
  half-life: 10.5 h
[…], t1/2, […] 1-hr infusion (only 3 subjects)
  half-life: 19.9 h
[…], t1/2, […] 2-hr infusion
  half-life: 13.2 h
iv, 0.05 mg/kg, AUC0-t, 0.05 mg/kg IV 1-hr infusion
  AUC(0-t): 1280 ng·h/mL
iv, 0.05 mg/kg, AUC0-∞, 0.05 mg/kg IV 1-hr infusion
  AUC(0-inf): 1580 ng·h/mL
iv, 0.05 mg/kg, AUC(0-24), Actual mean, Phase 1 subjects, 0.05 mg/kg IV
  AUC(0-t): 1290 ng·h/mL
iv, 0.05 mg/kg, 0.05 mg/kg IV 1-hr infusion
  Cmax: 256 ng/mL
iv, 0.05 mg/kg, t1/2, 0.05 mg/kg IV 1-hr infusion
  half-life: 7.37 h
iv, 0.5 mg/kg, AUC0-t, 0.5 mg/kg IV 2-hr infusion
  AUC(0-t): 8330 ng·h/mL
iv, 0.5 mg/kg, AUC0-∞, 0.5 mg/kg IV 2-hr infusion
  AUC(0-inf): 9090 ng·h/mL
iv, 0.5 mg/kg, 0.5 mg/kg IV 2-hr infusion
  Cmax: 1830 ng/mL
iv, 0.5 mg/kg, t1/2, 0.5 mg/kg IV 2-hr infusion
  half-life: 16.2 h
iv, 1 mg/kg, AUC0-t, 1 mg/kg IV 4-hr infusion
  AUC(0-t): 21600 ng·h/mL
iv, 1 mg/kg, AUC0-∞, 1 mg/kg IV 4-hr infusion
  AUC(0-inf): 21100 ng·h/mL
iv, 1 mg/kg, 1 mg/kg IV 4-hr infusion
  Cmax: 2650 ng/mL
iv, 1 mg/kg, t1/2, 1 mg/kg IV 4-hr infusion
  half-life: 20 h
iv, AUC0-24, Cohort 1, 0.05 mg/kg IV infusion, Geometric Mean
  AUC(0-t): 1230 ng·h/mL
iv, AUC0-24, Cohort 1, 0.05 mg/kg IV infusion, Mean
  AUC(0-t): 1290 ng·h/mL
iv, AUC0-24, Cohort 1, 0.05 mg/kg IV infusion, Median
  AUC(0-t): 1350 ng·h/mL
iv, AUC0-24, Cohort 1, 0.05 mg/kg IV infusion, cohort Geometric Mean
  AUC(0-t): 1230 ng·h/mL
iv, AUC0-24, Cohort 1, 0.05 mg/kg IV infusion, cohort Mean
  AUC(0-t): 1290 ng·h/mL
iv, AUC0-24, Cohort 1, 0.05 mg/kg IV infusion, cohort Median
  AUC(0-t): 1350 ng·h/mL
iv, AUC0-24, Cohort 4, 0.5 mg/kg IV infusion 2 hours, Geometric Mean
  AUC(0-t): 6930 ng·h/mL
iv, AUC0-24, Cohort 4, 0.5 mg/kg IV infusion 2 hours, Mean
  AUC(0-t): 7390 ng·h/mL
iv, AUC0-24, Cohort 4, 0.5 mg/kg IV infusion 2 hours, Median
  AUC(0-t): 7270 ng·h/mL
iv, AUC0-24, Cohort 4, 0.5 mg/kg IV, infusion 2 hours, cohort Geometric Mean
  AUC(0-t): 6930 ng·h/mL
iv, AUC0-24, Cohort 4, 0.5 mg/kg IV, infusion 2 hours, cohort Mean
  AUC(0-t): 7390 ng·h/mL
iv, AUC0-24, Cohort 4, 0.5 mg/kg IV, infusion 2 hours, cohort Median
  AUC(0-t): 7270 ng·h/mL
iv, AUC0-24, Cohort 5, 1 mg/kg IV infusion 4 hours, Geometric Mean
  AUC(0-t): 17300 ng·h/mL
iv, AUC0-24, Cohort 5, 1 mg/kg IV infusion 4 hours, Mean
  AUC(0-t): 18000 ng·h/mL
iv, AUC0-24, Cohort 5, 1 mg/kg IV infusion 4 hours, Median
  AUC(0-t): 14800 ng·h/mL
iv, AUC0-inf, Cohort 1, 0.05 mg/kg IV infusion, Geometric Mean
  AUC(0-inf): 1600 ng·h/mL
iv, AUC0-inf, Cohort 1, 0.05 mg/kg IV infusion, Mean
  AUC(0-inf): 1610 ng·h/mL
iv, AUC0-inf, Cohort 1, 0.05 mg/kg IV infusion, Median
  AUC(0-inf): 1520 ng·h/mL
iv, AUC0-inf, Cohort 1, 0.05 mg/kg IV infusion, cohort Geometric Mean
  AUC(0-inf): 1600 ng·h/mL
iv, AUC0-inf, Cohort 1, 0.05 mg/kg IV infusion, cohort Mean
  AUC(0-inf): 1610 ng·h/mL
iv, AUC0-inf, Cohort 1, 0.05 mg/kg IV infusion, cohort Median
  AUC(0-inf): 1520 ng·h/mL
iv, AUC0-inf, Cohort 1, 0.05 mg/kg IV infusion, individual subject
  AUC(0-inf): 1400 ng·h/mL
iv, AUC0-inf, Cohort 1, 0.05 mg/kg IV infusion, individual subjects
  AUC(0-inf): 1400 ng·h/mL
iv, AUC0-inf, Cohort 4, 0.5 mg/kg IV infusion 2 hours, Geometric Mean
  AUC(0-inf): 8530 ng·h/mL
iv, AUC0-inf, Cohort 4, 0.5 mg/kg IV infusion 2 hours, Mean
  AUC(0-inf): 9200 ng·h/mL
iv, AUC0-inf, Cohort 4, 0.5 mg/kg IV infusion 2 hours, Median
  AUC(0-inf): 9540 ng·h/mL
iv, AUC0-inf, Cohort 4, 0.5 mg/kg IV, infusion 2 hours, cohort Geometric Mean
  AUC(0-inf): 8530 ng·h/mL
iv, AUC0-inf, Cohort 4, 0.5 mg/kg IV, infusion 2 hours, cohort Mean
  AUC(0-inf): 9200 ng·h/mL
iv, AUC0-inf, Cohort 4, 0.5 mg/kg IV, infusion 2 hours, cohort Median
  AUC(0-inf): 9540 ng·h/mL
iv, AUC0-inf, Cohort 5, 1 mg/kg IV infusion 4 hours, Geometric Mean
  AUC(0-inf): 21100 ng·h/mL
iv, AUC0-inf, Cohort 5, 1 mg/kg IV infusion 4 hours, Mean
  AUC(0-inf): 21300 ng·h/mL
iv, AUC0-inf, Cohort 5, 1 mg/kg IV infusion 4 hours, Median
  AUC(0-inf): 21000 ng·h/mL
iv, AUC0-inf, Cohort 5, 1 mg/kg IV infusion 4 hours, individual subject
  AUC(0-inf): 22100 ng·h/mL
iv, AUC0-t, Cohort 1, 0.05 mg/kg IV infusion, Geometric Mean
  AUC(0-t): 1220 ng·h/mL
iv, AUC0-t, Cohort 1, 0.05 mg/kg IV infusion, Mean
  AUC(0-t): 1310 ng·h/mL
iv, AUC0-t, Cohort 1, 0.05 mg/kg IV infusion, Median
  AUC(0-t): 1350 ng·h/mL
iv, AUC0-t, Cohort 1, 0.05 mg/kg IV infusion, cohort Geometric Mean
  AUC(0-t): 1220 ng·h/mL
iv, AUC0-t, Cohort 1, 0.05 mg/kg IV infusion, cohort Mean
  AUC(0-t): 1310 ng·h/mL
iv, AUC0-t, Cohort 1, 0.05 mg/kg IV infusion, cohort Median
  AUC(0-t): 1350 ng·h/mL
iv, AUC0-t, Cohort 4, 0.5 mg/kg IV infusion 2 hours, Geometric Mean
  AUC(0-t): 7830 ng·h/mL
iv, AUC0-t, Cohort 4, 0.5 mg/kg IV infusion 2 hours, Mean
  AUC(0-t): 8440 ng·h/mL
iv, AUC0-t, Cohort 4, 0.5 mg/kg IV infusion 2 hours, Median
  AUC(0-t): 8540 ng·h/mL
iv, AUC0-t, Cohort 4, 0.5 mg/kg IV, infusion 2 hours, cohort Geometric Mean
  AUC(0-t): 7830 ng·h/mL
iv, AUC0-t, Cohort 4, 0.5 mg/kg IV, infusion 2 hours, cohort Mean
  AUC(0-t): 8440 ng·h/mL
iv, AUC0-t, Cohort 4, 0.5 mg/kg IV, infusion 2 hours, cohort Median
  AUC(0-t): 8540 ng·h/mL
iv, AUC0-t, Cohort 5, 1 mg/kg IV infusion 4 hours, Geometric Mean
  AUC(0-t): 20400 ng·h/mL
iv, AUC0-t, Cohort 5, 1 mg/kg IV infusion 4 hours, Mean
  AUC(0-t): 21200 ng·h/mL
iv, AUC0-t, Cohort 5, 1 mg/kg IV infusion 4 hours, Median
  AUC(0-t): 17600 ng·h/mL
iv, Cohort 1, 0.05 mg/kg IV infusion, Geometric Mean
  Cmax: 251 ng/mL
iv, Cohort 1, 0.05 mg/kg IV infusion, Mean
  Cmax: 256 ng/mL
iv, Cohort 1, 0.05 mg/kg IV infusion, Median
  Cmax: 262 ng/mL
iv, Cohort 1, 0.05 mg/kg IV infusion, cohort Geometric Mean
  Cmax: 251 ng/mL
iv, Cohort 1, 0.05 mg/kg IV infusion, cohort Mean
  Cmax: 256 ng/mL
iv, Cohort 1, 0.05 mg/kg IV infusion, cohort Median
  Cmax: 262 ng/mL
iv, Cohort 4, 0.5 mg/kg IV infusion 2 hours, Geometric Mean
  Cmax: 1770 ng/mL
iv, Cohort 4, 0.5 mg/kg IV infusion 2 hours, Mean
  Cmax: 1830 ng/mL
